The text below walks through data of PubChem BioAssay (NCI).

Among the test systems are SK-MEL-5 melanoma; SK-MEL-2 melanoma; SF-268 CNS; NCI-H23 lung; HCT-116 colon; ACHN renal; UACC-62 melanoma; COLO 205 colon; SF-539 CNS.
Holding throughout (assay): NCI anticancer screen, dose series, 48 h

The structures appear in SMILES notation.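 48-hour exposure; five concentrations; linearly interpolated endpoints. Abbreviation: GI50, concentration required for 50% inhibition of growth. The concentration for full growth arrest is given as TGI.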 A value given as a limit tells only on which side of the number the result lay.

As to `CC1=C(C(=O)Nc2ccc(Cl)c(Cl)c2)C(c2cccc(Cl)c2)NC(=S)N1` (stereo unspecified), the GI50 is 2 µM in the assay with SK-MEL-5 melanoma; 14.5 µM with SK-MEL-2 melanoma; 16.5 µM in the assay with SF-268 CNS; 9.79 µM with NCI-H23 lung; 7.75 µM in the assay with HCT-116 colon; 12.4 µM in the assay on ACHN renal. For the same compound, the values for the GI50 in the assay on UACC-62 melanoma and in the assay with COLO 205 colon were 8.1 µM and 17.4 µM, respectively. Further, the TGI with SK-MEL-5 melanoma was 4.32 µM; in the assay on SK-MEL-2 melanoma, 27.1 µM; in the assay on SF-268 CNS it was 41.8 µM; with NCI-H23 lung, 20.9 µM; in the assay on HCT-116 colon it was 21.5 µM; with ACHN renal it was 37.1 µM. In addition, the values for the TGI with UACC-62 melanoma and in the assay with COLO 205 colon were 18.1 µM and over 50 µM, respectively.

Consider `COC(=O)[C@@]12C3=NO[C@]1(C(=O)OC)C(O[Si](C)(C)C(C)(C)C)[C@@H](OC(C)=O)[C@@H](OC(C)=O)[C@@H]2[C@@H](OCc1ccccc1)CC3` (stereo partly specified), for which the TGI in the assay on SF-539 CNS, in the assay with SK-MEL-5 melanoma, with SK-MEL-2 melanoma, in the assay on SF-268 CNS, in the assay on NCI-H23 lung and in the assay with HCT-116 colon was over 100 µM in each case. Moreover, the TGI in the assay with ACHN renal, with UACC-62 melanoma and in the assay on COLO 205 colon was over 100 µM each time.

Turning to `Cc1ccc(S(=O)(=O)NNS(C)(=O)=O)cc1`, the TGI with SF-539 CNS, with SK-MEL-5 melanoma, with SK-MEL-2 melanoma, in the assay with SF-268 CNS, in the assay with NCI-H23 lung and in the assay with HCT-116 colon was over 100 µM each time. Besides, the TGI in the assay on ACHN renal, with UACC-62 melanoma and with COLO 205 colon was over 100 µM each time.

As to `CC(=O)OCC1OC(n2c(=S)n(-c3ccccc3)c(=O)c3cc(Br)ccc32)C(OC(C)=O)C1OC(C)=O` (stereo unspecified), the TGI in the assay with SF-539 CNS, with SK-MEL-5 melanoma, in the assay with SK-MEL-2 melanoma, with SF-268 CNS, in the assay with NCI-H23 lung and in the assay on HCT-116 colon was over 100 µM each time. For the same compound, the TGI in the assay on ACHN renal, with UACC-62 melanoma and in the assay with COLO 205 colon was over 100 µM in each case.

Consider `COc1ccc2c(c1)[n+]([O-])c(-c1ccccc1Cl)c(N)[n+]2[O-]`, for which the TGI with SF-539 CNS, in the assay on SK-MEL-5 melanoma, in the assay with SK-MEL-2 melanoma, with SF-268 CNS, with NCI-H23 lung and with HCT-116 colon was over 100 µM each time. The TGI in the assay with ACHN renal is over 100 µM; with COLO 205 colon, 32.6 µM.

Take `CC(=O)C1C(=O)C(=O)N(CCN2C(=O)C(=O)C(C(C)=O)C2=O)C1=O` (stereo unspecified): the TGI in the assay with SF-539 CNS, in the assay with SK-MEL-5 melanoma, in the assay with SK-MEL-2 melanoma, in the assay on SF-268 CNS, in the assay on NCI-H23 lung and in the assay with HCT-116 colon was over 100 µM in each case. Further, the TGI in the assay with ACHN renal, with UACC-62 melanoma and in the assay on COLO 205 colon was over 100 µM each time.

In the case of `N#Cc1ccc(C2SCc3nc4ccccc4n32)cc1` (stereo unspecified), the TGI with SF-539 CNS, in the assay with SK-MEL-5 melanoma, with SK-MEL-2 melanoma, with SF-268 CNS, in the assay on NCI-H23 lung and with HCT-116 colon was over 100 µM each time. In addition, the TGI with ACHN renal, in the assay on UACC-62 melanoma and in the assay on COLO 205 colon was over 100 µM throughout.

Take `CCCCOC(=O)NC(=O)c1cn(CCCOC(=O)CCCCCCCCC(=O)OCCCn2cc(C(=O)NC(=O)OCCCC)c(=O)n(C)c2=O)c(=O)n(C)c1=O`: the TGI in the assay on SF-539 CNS, in the assay with SK-MEL-5 melanoma, with SK-MEL-2 melanoma, with SF-268 CNS, in the assay with NCI-H23 lung and with HCT-116 colon was over 100 µM each time. The TGI in the assay on ACHN renal, with UACC-62 melanoma and in the assay with COLO 205 colon was over 100 µM throughout.

For the compound `CC1(C)C(=O)/C=C\C(=O)C(C)(C)C(=O)/C=C\C(=O)C(C)(C)C2=CC=C(O2)C(C)(C)C(=O)/C=C\C1=O`, the TGI in the assay on SF-539 CNS came out at 17.7 µM; in the assay on SK-MEL-5 melanoma, 21.2 µM; in the assay on SK-MEL-2 melanoma, 25.5 µM; in the assay on SF-268 CNS, 43.8 µM; in the assay with NCI-H23 lung, 15.6 µM; in the assay with HCT-116 colon, 5 µM. The TGI in the assay on ACHN renal was found to be 12.6 µM; with UACC-62 melanoma it was 15.7 µM; in the assay on COLO 205 colon it was 6.45 µM.

For the compound `CCN(CC)c1ccc(C2N3CCCCC3[C@@H]3c4[nH]c5ccccc5c4CCN23)cc1` (stereo partly specified), the TGI with SF-539 CNS was 41.6 µM; in the assay on SK-MEL-5 melanoma it was 31.1 µM; in the assay with SF-268 CNS, 69 µM; with NCI-H23 lung, over 100 µM; in the assay with HCT-116 colon, 33.9 µM; in the assay on ACHN renal it was 74.7 µM. Besides, the figures for the TGI in the assay on UACC-62 melanoma and with COLO 205 colon were 36.6 µM and 93.2 µM, respectively.

For `CSc1nnc(C(C#N)C#N)nn1`, the TGI in the assay with SF-539 CNS, in the assay on SK-MEL-5 melanoma, in the assay on SF-268 CNS, in the assay with NCI-H23 lung, in the assay with HCT-116 colon and in the assay on UACC-62 melanoma was over 100 µM in each case. In the assay on COLO 205 colon, this compound came in with a TGI of over 100 µM.

Take `CCN(CC)c1c(C)nnn1C1OC(COC(C)=O)C(OC(C)=O)C(OC(C)=O)C1OC(C)=O` (stereo unspecified): the TGI in the assay with SF-539 CNS, with SK-MEL-5 melanoma, in the assay on SF-268 CNS, in the assay on NCI-H23 lung, in the assay on HCT-116 colon and in the assay on ACHN renal was over 100 µM each time. In addition, the TGI in the assay on UACC-62 melanoma and in the assay on COLO 205 colon was over 100 µM throughout.

As to `COc1cc(O)c(C(=O)/C=C/c2ccc(OC)c(OCc3ccccc3)c2)c(OC)c1`, the TGI in the assay with SF-539 CNS, in the assay with SK-MEL-5 melanoma, with SK-MEL-2 melanoma, in the assay on NCI-H23 lung, in the assay with HCT-116 colon and in the assay with ACHN renal was over 100 µM throughout. The TGI in the assay with UACC-62 melanoma is 7.33 µM; with COLO 205 colon, 2.09 µM.

With `Cc1ccc(S(=O)(=O)C2CC2(Cl)Cl)cc1` (stereo unspecified), the TGI with SF-539 CNS was over 100 µM; in the assay with SK-MEL-2 melanoma, over 100 µM; in the assay on SF-268 CNS it was over 100 µM; in the assay with NCI-H23 lung, 62.5 µM; with HCT-116 colon, 44.7 µM; in the assay with ACHN renal, 70.8 µM. For the same compound, the TGI was found to be 60.4 µM in the assay on UACC-62 melanoma and 41.9 µM in the assay with COLO 205 colon.

For `CCN(CC)C(=S)SS(C)(=O)=O`, the TGI in the assay with SF-539 CNS was 43.7 µM; with SK-MEL-5 melanoma it was 49.4 µM; with SK-MEL-2 melanoma, 33.2 µM; in the assay with NCI-H23 lung, 35.4 µM; with HCT-116 colon, 43.1 µM; in the assay with ACHN renal it was 31.8 µM. Further, the figures for the TGI in the assay with UACC-62 melanoma and with COLO 205 colon were 30 µM and 29.7 µM, respectively.

As to `NC(=O)c1ncn(C2OC(CO)C(O)C2O)c1O` (stereo unspecified), the TGI in the assay with SF-539 CNS, in the assay with SK-MEL-2 melanoma, with SF-268 CNS, in the assay with HCT-116 colon, in the assay with ACHN renal and in the assay with UACC-62 melanoma was over 100 µM each time.

`O=C1[C@@H]2C(c3ccccc3[N+](=O)[O-])=NO[C@@H]2C(=O)N1c1ccc(Cc2ccc(N3C(=O)[C@H]4C(c5ccccc5[N+](=O)[O-])=NO[C@H]4C3=O)cc2)cc1`: the TGI in the assay on SF-539 CNS, with SK-MEL-5 melanoma, with SF-268 CNS, in the assay with NCI-H23 lung, in the assay with HCT-116 colon and in the assay on ACHN renal was over 100 µM each time. The TGI with UACC-62 melanoma and in the assay on COLO 205 colon was over 100 µM in each case.

Regarding `COc1ccc(C(=O)C(C(=O)C(=O)NCCCNC(=O)C(=O)C(C(=O)c2ccc(OC)cc2)c2ccc(OC)cc2)c2ccc(OC)cc2)cc1` (stereo unspecified), the TGI in the assay on SF-539 CNS, in the assay on SK-MEL-2 melanoma, with SF-268 CNS, in the assay with NCI-H23 lung, with HCT-116 colon and with UACC-62 melanoma was over 100 µM in each case. Besides, in the assay on COLO 205 colon, the TGI is over 100 µM.

For `Cc1ccc(Nc2nc(-c3ccc(-c4ccc([N+](=O)[O-])cc4)o3)cs2)cc1`, the TGI in the assay on SF-539 CNS was over 100 µM; with SK-MEL-2 melanoma it was over 100 µM; with SF-268 CNS it was over 100 µM; in the assay on NCI-H23 lung, 94.5 µM; in the assay with HCT-116 colon it was over 100 µM; in the assay with ACHN renal, over 100 µM. The TGI in the assay on UACC-62 melanoma and in the assay with COLO 205 colon was over 100 µM each time.

As to `CN1CCN(c2nc(N)c(Br)c(Cl)n2)CC1`, the TGI in the assay on SK-MEL-5 melanoma, with SK-MEL-2 melanoma, in the assay with SF-268 CNS, in the assay with NCI-H23 lung, in the assay with ACHN renal and in the assay with UACC-62 melanoma was over 100 µM each time. In addition, the TGI in the assay with COLO 205 colon was over 100 µM.

For `O=C(Oc1c(Cl)cc(Cl)cc1Cl)c1ccccc1Nc1ccnc(C(F)(F)F)c1`, the GI50 in the assay on SK-MEL-5 melanoma was 3.07 µM; in the assay with SK-MEL-2 melanoma, 31.1 µM; in the assay on SF-268 CNS, 3.92 µM; with NCI-H23 lung, 2.59 µM; with HCT-116 colon it was 1.72 µM; with ACHN renal it was 2.46 µM. Besides, the values for the GI50 with UACC-62 melanoma and in the assay on COLO 205 colon were 1.74 µM and 6.24 µM, respectively. Moreover, the TGI with SK-MEL-5 melanoma is over 100 µM; in the assay with SK-MEL-2 melanoma, over 100 µM; with SF-268 CNS it was over 100 µM; with NCI-H23 lung it was 6.3 µM; in the assay with HCT-116 colon, 4.28 µM; in the assay on ACHN renal it was 6.52 µM. Besides, the figures for the TGI with UACC-62 melanoma and with COLO 205 colon were 6.06 µM and over 100 µM, respectively.
